Measurements as given in ChEMBL document CHEMBL1697692, “Developing structure-activity relationships for the prediction of hepatotoxicity” (Chem Res Toxicol, 2010).

Tested on: Hepatotoxicity
Test: Literature-mined public compounds from Greene et al multi-species hepatotoxicity modelling dataset

| Molecule | Hepatotoxicity |
| --- | --- |
| S=C=Nc1cccc2ccccc12 [1-NAPHTHYLISOTHIOCYANATE] | HH: Evidence of human hepatotoxicity |
| C[C@H](CCc1ccccc1)NC[C@H](O)c1ccc(O)c(C(N)=O)c1 [DILEVALOL] | HH: Evidence of human hepatotoxicity |
| CNC(=C[N+](=O)[O-])NCCSCc1ccc(CN(C)C)o1 [RANITIDINE] | WE: Weak evidence (<10 case reports) of human hepatotoxicity |
| C[C@H]1C[C@H]2[C@@H]3CCC4=CC(=O)C=C[C@]4(C)[C@@]3(F)[C@@H](O)C[C@]2(C)[C@@]1(O)C(=O)CO [BETAMETHASONE] | NE: No evidence of hepatotoxicity in any species |
| CC(=O)O[C@]1(C(C)=O)CC[C@H]2[C@@H]3C[C@H](C)C4=CC(=O)CC[C@]4(C)[C@H]3CC[C@@]21C [MEDROXYPROGESTERONE ACETATE] | WE: Weak evidence (<10 case reports) of human hepatotoxicity |
| CCCCC(=O)N(Cc1ccc(-c2ccccc2-c2nnn[nH]2)cc1)[C@H](C(=O)O)C(C)C | WE: Weak evidence (<10 case reports) of human hepatotoxicity |
| C[C@H]1C(=O)O[C@@H]2CCN3CC=C(COC(=O)[C@](C)(O)[C@]1(C)O)[C@H]23 [MONOCROTALINE] | AH: Evidence for animal hepatotoxicity but not tested in humans |
| NCCCCCC(=O)O [AMINOCAPROIC ACID] | NE: No evidence of hepatotoxicity in any species |
| CC(CCc1ccc(O)cc1)NCCc1ccc(O)c(O)c1.Cl (centres undefined) [DOBUTAMINE HYDROCHLORIDE] | NE: No evidence of hepatotoxicity in any species |
| CCN(CC)CC(=O)Nc1c(C)cccc1C [LIDOCAINE] | NE: No evidence of hepatotoxicity in any species |
| CNCC[C@@H](Oc1ccccc1C)c1ccccc1 [ATOMOXETINE] | HH: Evidence of human hepatotoxicity |
| CS(=O)(=O)OCCCCOS(C)(=O)=O [BUSULFAN] | HH: Evidence of human hepatotoxicity |
| Nc1c(CC(=O)O)cccc1C(=O)c1ccc(Br)cc1 [BROMFENAC] | HH: Evidence of human hepatotoxicity |
| CN[C@@H]1[C@H](O[C@H]2[C@H](O[C@H]3[C@H](O)[C@@H](O)[C@H](N=C(N)N)[C@@H](O)[C@@H]3N=C(N)N)O[C@@H](C)[C@]2(O)C=O)O[C@@H](CO)[C@H](O)[C@H]1O.CN[C@@H]1[C@H](O[C@H]2[C@H](O[C@H]3[C@H](O)[C@@H](O)[C@H](N=C(N)N)[C@@H](O)[C@@H]3N=C(N)N)O[C@@H](C)[C@]2(O)C=O)O[C@@H](CO)[C@H](O)[C@H]1O.O=S(=O)(O)O.O=S(=O)(O)O.O=S(=O)(O)O [STREPTOMYCIN SULFATE] | NE: No evidence of hepatotoxicity in any species |
| CCOC(=O)[C@H](CCc1ccccc1)N[C@H]1CCc2ccccc2N(CC(=O)O)C1=O [BENAZEPRIL] | WE: Weak evidence (<10 case reports) of human hepatotoxicity |
| C=C1CC[C@H](O)C/C1=C/C=C1\CCC[C@]2(C)[C@@H]([C@H](C)/C=C/[C@H](C)C(C)C)CC[C@@H]12 [ERGOCALCIFEROL] | NE: No evidence of hepatotoxicity in any species |
| CC(COc1ccccc1)N(CCCl)Cc1ccccc1.Cl (centres undefined) [PHENOXYBENZAMINE HYDROCHLORIDE] | NE: No evidence of hepatotoxicity in any species |
| GALLIUM NITRATE HYDRATE | NE: No evidence of hepatotoxicity in any species |
| COc1cc2c(cc1OC)C(=O)C(CC1CCN(Cc3ccccc3)CC1)C2 (centres undefined) [DONEPEZIL] | WE: Weak evidence (<10 case reports) of human hepatotoxicity |
| Cc1cc(C(C)(C)C)c(O)c(C(C)(C)C)c1 [BUTYLATED HYDROXYTOLUENE] | AH: Evidence for animal hepatotoxicity but not tested in humans |
| OCCO [ETHYLENE GLYCOL] | AH: Evidence for animal hepatotoxicity but not tested in humans |
| Nc1ccc(Cc2ccc(N)cc2)cc1 | AH: Evidence for animal hepatotoxicity but not tested in humans |
| Oc1ncnc2[nH]ncc12 [ALLOPURINOL] | HH: Evidence of human hepatotoxicity |
| NC(=O)N1c2ccccc2C=Cc2ccccc21 [CARBAMAZEPINE] | HH: Evidence of human hepatotoxicity |
